In patent US12410153B2, “Compounds, compositions and methods” (Avalo Therapeutics, Inc., priority 2014, dated 2025):
Where two headings read alike, the source gives them in different places.

Experiment: Repeated once-daily oral dosing with food (Days 1-7) in healthy subjects, PK and PD
Format: in vivo, human
Conditions: for Cmax: read-out: Cmax, Mean (SD); for AUC(0-inf): read-out: AUCinf, Mean (SD)
Procedure: A randomized, double-blind, placebo-controlled, parallel-dose group in-patient study is conducted to investigate the pharmacodynamic (PD) effects of crystalline Form II of Compound (I) in healthy subjects.
The study is designed as a three-part, sequential study. The sequential nature of the study ensures that a range of doses are investigated first in a young, healthy population (Part 1) before proceeding to higher doses in the healthy population and the comparator populations (intermediate age and elderly) (Parts 2 and 3). For the purposes of this study, “young” refers to a subject who is 18 to 45 years of age, “intermediate age” refers to a subject who is 46 to 64 years of age, and “elderly” refers to a subject who is 65 years of age or older.
After a screening period of up to 21 days (Days −23 to −3), 16 healthy, young male and female subjects are randomly assigned to a dose group as shown in Table 9.
Each parallel dose group is balanced for gender (approximately equal number of males and females). The randomized subjects are domiciled from Day −1 through Day 8. On Day −1, the subjects receive placebo tablets in the fed state and undergo ambulatory blood pressure monitoring (ABPM) and safety assessments to establish time-matched baselines. On Days 1-7, the subjects receive the study drug in the fed state and undergo safety, pharmacokinetic (PK) and pharmacodynamics (PD) assessments. On Days 8-11, follow-up PK and safety assessments are performed.
Safety assessments include Clinician-Administered Dissociative States Scale (CADSS), Columbia-Suicide Severity Rating Scale (C-SSRS), concomitant medication, adverse event (AE) and vital sign assessments. In PK assessments, blood samples are taken and analyzed to determine PK parameters such as Cmax, Tmax, AUC0-24, and t1/2. PD assessments include ABPM, plasma brain-derived neurotrophic factor (BDNF) measurements, and Profile of Mood States (POMS) assessments.
After a screening period of up to 21 days (Days −23 to −3), 16 subjects (8 healthy, young male and female subjects, and 8 healthy, intermediate age male and female subjects) are randomly assigned to a dose group as shown in Table 10.
After a screening period of up to 21 days (Days −23 to −3), 16 subjects (8 healthy, young male and female subjects, and 8 healthy, elderly male and female subjects) are randomly assigned to a dose group as shown in Table 11.

[1] = both sexes, human, plasma, oral, 12 mg, young subjects, 12 mg, Day 7
[2] = both sexes, human, plasma, oral, 16 mg, young subjects, 16 mg, Day 7
[3] = both sexes, human, plasma, oral, 20 mg, young subjects, 20 mg, Day 7

## Cc1ccc(COC(=O)N2CC[C@H](CNc3ncccn3)[C@H](F)C2)cc1 [Form II, 4-methylbenzyl (3S, 4R)-3-fluoro-4-[(pyrimidin-2-ylamino)methyl] piperidine-1-carboxylate]
Both sexes, human, plasma, oral, 12 mg, young subjects, 12 mg, Day 1, read-out: AUC0-24, Mean (SD)
  AUC(0-t): 1860 ng·h/mL
Both sexes, human, plasma, oral, 12 mg, young subjects, 12 mg, Day 1, read-out: AUClast, Mean (SD)
  AUC(0-t): 1840 ng·h/mL
Both sexes, human, plasma, oral, 12 mg, young subjects, 12 mg, Day 1
  Cmax: 239 ng/mL
Both sexes, human, plasma, oral, 12 mg, young subjects, 12 mg, Day 1, read-out: Vz/F, Mean (SD)
  Vd/F: 197 L
Both sexes, human, plasma, oral, 12 mg, young subjects, 12 mg, Day 1, read-out: tmax, Mean (SD)
  Tmax: 1.77 h
Both sexes, human, plasma, oral, 12 mg, young subjects, 12 mg, Day 1, read-out: tmax, Median
  Tmax: 1.5 h
Both sexes, human, plasma, oral, 12 mg, young subjects, 12 mg, Day 7, read-out: AUC0-24, Mean (SD)
  AUC(0-t): 3060 ng·h/mL
[1]
  AUC(0-inf): 5930 ng·h/mL
  Cmax: 274 ng/mL
Both sexes, human, plasma, oral, 12 mg, young subjects, 12 mg, Day 7, read-out: AUClast, Mean (SD)
  AUC(0-t): 5610 ng·h/mL
Both sexes, human, plasma, oral, 12 mg, young subjects, 12 mg, Day 7, read-out: Vss/F, Mean (SD)
  Vd/F: 115 L
Both sexes, human, plasma, oral, 12 mg, young subjects, 12 mg, Day 7, read-out: t1/2, Mean (SD) (converted)
  half-life: 20.5 h
Both sexes, human, plasma, oral, 12 mg, young subjects, 12 mg, Day 7, read-out: tmax, Mean (SD)
  Tmax: 2.42 h
Both sexes, human, plasma, oral, 12 mg, young subjects, 12 mg, Day 7, read-out: tmax, Median
  Tmax: 2.5 h
Both sexes, human, plasma, oral, 16 mg, young subjects, 16 mg, Day 1, read-out: AUC0-24, Mean (SD)
  AUC(0-t): 2660 ng·h/mL
Both sexes, human, plasma, oral, 16 mg, young subjects, 16 mg, Day 1, read-out: AUClast, Mean (SD)
  AUC(0-t): 2630 ng·h/mL
Both sexes, human, plasma, oral, 16 mg, young subjects, 16 mg, Day 1
  Cmax: 306 ng/mL
Both sexes, human, plasma, oral, 16 mg, young subjects, 16 mg, Day 1, read-out: Vz/F, Mean (SD)
  Vd/F: 175 L
Both sexes, human, plasma, oral, 16 mg, young subjects, 16 mg, Day 1, read-out: tmax, Mean (SD)
  Tmax: 2.58 h
Both sexes, human, plasma, oral, 16 mg, young subjects, 16 mg, Day 1, read-out: tmax, Median
  Tmax: 3 h
Both sexes, human, plasma, oral, 16 mg, young subjects, 16 mg, Day 7, read-out: AUC0-24, Mean (SD)
  AUC(0-t): 4300 ng·h/mL
[2]
  AUC(0-inf): 8020 ng·h/mL
  Cmax: 413 ng/mL
Both sexes, human, plasma, oral, 16 mg, young subjects, 16 mg, Day 7, read-out: AUClast, Mean (SD)
  AUC(0-t): 7450 ng·h/mL
Both sexes, human, plasma, oral, 16 mg, young subjects, 16 mg, Day 7, read-out: t1/2, Mean (SD) (converted)
  half-life: 20 h
Both sexes, human, plasma, oral, 16 mg, young subjects, 16 mg, Day 7, read-out: tmax, Mean (SD)
  Tmax: 1.75 h
Both sexes, human, plasma, oral, 16 mg, young subjects, 16 mg, Day 7, read-out: tmax, Median
  Tmax: 1.75 h
Both sexes, human, plasma, oral, 20 mg, young subjects, 20 mg, Day 1, read-out: AUC0-24, Mean (SD)
  AUC(0-t): 3520 ng·h/mL
Both sexes, human, plasma, oral, 20 mg, young subjects, 20 mg, Day 1, read-out: AUClast, Mean (SD)
  AUC(0-t): 3480 ng·h/mL
Both sexes, human, plasma, oral, 20 mg, young subjects, 20 mg, Day 1
  Cmax: 384 ng/mL
Both sexes, human, plasma, oral, 20 mg, young subjects, 20 mg, Day 1, read-out: Vz/F, Mean (SD)
  Vd/F: 148 L
Both sexes, human, plasma, oral, 20 mg, young subjects, 20 mg, Day 1, read-out: tmax, Mean (SD)
  Tmax: 2.17 h
Both sexes, human, plasma, oral, 20 mg, young subjects, 20 mg, Day 1, read-out: tmax, Median
  Tmax: 2.25 h
Both sexes, human, plasma, oral, 20 mg, young subjects, 20 mg, Day 7, read-out: AUC0-24, Mean (SD)
  AUC(0-t): 6040 ng·h/mL
[3]
  AUC(0-inf): 10500 ng·h/mL
  Cmax: 534 ng/mL
Both sexes, human, plasma, oral, 20 mg, young subjects, 20 mg, Day 7, read-out: AUClast, Mean (SD)
  AUC(0-t): 10100 ng·h/mL
Both sexes, human, plasma, oral, 20 mg, young subjects, 20 mg, Day 7, read-out: t1/2, Mean (SD) (converted)
  half-life: 18.8 h
Both sexes, human, plasma, oral, 20 mg, young subjects, 20 mg, Day 7, read-out: tmax, Mean (SD)
  Tmax: 1.67 h
Both sexes, human, plasma, oral, 20 mg, young subjects, 20 mg, Day 7, read-out: tmax, Median
  Tmax: 1.5 h
Both sexes, human, plasma, oral, Day 1, read-out: median Tmax values, range
  Tmax: 2 to 3 h
Both sexes, human, plasma, oral, Day 7, read-out: average apparent volume of distribution, range
  Vd: 83 to 116 L
Both sexes, human, plasma, oral, Day 7, read-out: average t½, range
  half-life: 17 to 25 h
Both sexes, human, plasma, oral, Day 7, read-out: average t½, range across genders
  half-life: 21 to 24 h
Both sexes, human, plasma, oral, Day 7, read-out: median Tmax values, range
  Tmax: 1.5 to 3 h
elderly, 12 mg
  Day 7/Day 1 Cmax Ratio, Mean (SD): 1.53 (0.13)
  Observed Accumulation Index, Mean (SD): 2.12 (0.22)
  Steady State Accumulation Index, Mean (SD): 1.30 (0.11)
elderly, 12 mg, Day 1
  CL/F, Mean (SD): 5.87 (1.32) L/h
